In the supplement of paper PMC10307832:

How the values were obtained:
Assay in all cases: relative viability (nuclei count vs DMSO), 5 days (fraction); higher = more cells survive
Neratinib + Linsitinib = compound: CCOc1cc2ncc(C#N)c(Nc3ccc(OCc4ccccn4)c(Cl)c3)c2cc1NC(=O)/C=C/CN(C)C [Neratinib] + C[C@]1(O)C[C@@H](c2nc(-c3ccc4ccc(-c5ccccc5)nc4c3)c3c(N)nccn32)C1 [Linsitinib] (partner 1 µM)
Outline: (§1)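 Lung cancer cell lines in 1536-well plates were dosed by pin tool the day after seeding, either with one drug alone or with a fixed anchor-drug dose plus five library-drug doses (not always all listed) in √10 steps. After 5 days, cells were fixed and their nuclei stained in one step (final 0.05% Triton X-100, 1% formaldehyde, 1 ug/ml Hoechst), then counted on 4× images. Relative viability is the nuclei count in treated wells divided by that in vehicle wells. Values are medians of duplicate plates.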

Neratinib + Vorinostat = compound: CCOc1cc2ncc(C#N)c(Nc3ccc(OCc4ccccn4)c(Cl)c3)c2cc1NC(=O)/C=C/CN(C)C [Neratinib] + O=C(CCCCCCC(=O)Nc1ccccc1)NO [Vorinostat] (partner 1 µM)
Outline: as §1

Neratinib + Pemetrexed = compound: CCOc1cc2ncc(C#N)c(Nc3ccc(OCc4ccccn4)c(Cl)c3)c2cc1NC(=O)/C=C/CN(C)C [Neratinib] + Nc1nc2[nH]cc(CCc3ccc(C(=O)N[C@@H](CCC(=O)O)C(=O)O)cc3)c2c(=O)[nH]1 [Pemetrexed] (partner 0.2 µM)
Outline: as §1

Neratinib + Navitoclax = compound: CCOc1cc2ncc(C#N)c(Nc3ccc(OCc4ccccn4)c(Cl)c3)c2cc1NC(=O)/C=C/CN(C)C [Neratinib] + CC1(C)CCC(c2ccc(Cl)cc2)=C(CN2CCN(c3ccc(C(=O)NS(=O)(=O)c4ccc(N[C@H](CCN5CCOCC5)CSc5ccccc5)c(S(=O)(=O)C(F)(F)F)c4)cc3)CC2)C1 [Navitoclax] (partner 0.5 µM)
Outline: as §1

Cell Line	relative viability (Neratinib + Linsitinib; first compound 0.01 µM)	relative viability (Neratinib + Linsitinib; first compound 0.03162 µM)	relative viability (Neratinib + Linsitinib; first compound 0.1 µM)	relative viability (Neratinib + Linsitinib; first compound 0.3162 µM)	relative viability (Neratinib + Linsitinib; first compound 1 µM)	relative viability (Neratinib + Vorinostat; first compound 0.01 µM)	relative viability (Neratinib + Vorinostat; first compound 0.03162 µM)	relative viability (Neratinib + Vorinostat; first compound 0.1 µM)	relative viability (Neratinib + Vorinostat; first compound 0.3162 µM)	relative viability (Neratinib + Vorinostat; first compound 1 µM)	relative viability (Neratinib + Pemetrexed; first compound 0.01 µM)	relative viability (Neratinib + Pemetrexed; first compound 0.03162 µM)	relative viability (Neratinib + Pemetrexed; first compound 0.1 µM)	relative viability (Neratinib + Pemetrexed; first compound 0.3162 µM)	relative viability (Neratinib + Pemetrexed; first compound 1 µM)	relative viability (Neratinib + Navitoclax; first compound 0.01 µM)	relative viability (Neratinib + Navitoclax; first compound 0.03162 µM)	relative viability (Neratinib + Navitoclax; first compound 0.1 µM)	relative viability (Neratinib + Navitoclax; first compound 0.3162 µM)	relative viability (Neratinib + Navitoclax; first compound 1 µM)
201T	1.01	1.01	0.92	0.931	0.852	0.978	0.95	0.783	0.969	0.849	0.358	0.373	0.316	0.35	0.324	1.26	1.19	1.18	1.22	1.25
A-427	1.13	1.19	1.11	1.07	0.731	0.958	–	0.849	–	0.857	1.13	1.05	0.975	0.897	0.866	1.06	0.984	0.907	0.879	0.46
ABC-1	0.781	–	0.611	0.433	0.292	1.57	–	0.813	1.13	0.713	–	–	–	–	–	–	–	–	–	–
BEN	1.03	0.961	0.814	0.744	0.544	0.562	0.596	0.606	0.552	0.43	0.971	0.929	0.751	0.778	0.623	0.0747	0.0585	0.0644	0.0753	0.0586
CAL-12T	0.771	1.09	0.703	0.455	0.343	0.802	0.835	0.553	0.436	0.198	1.38	1.17	0.946	0.798	0.329	1.27	1.59	0.94	0.632	0.232
COR-L23	1.01	1.08	0.879	0.835	0.318	0.466	0.468	0.486	0.449	0.235	0.206	0.199	0.211	0.187	0.191	1.16	1.13	1.13	0.968	0.485
COR-L 105	0.989	1.07	0.754	0.298	0.241	0.781	0.817	0.5	0.505	0.33	1.11	1.13	0.857	0.484	0.37	1.01	0.748	0.452	0.226	0.273
Calu-6	1.03	1.08	1.02	0.899	0.824	–	–	–	–	–	–	–	–	–	–	0.833	0.899	0.975	0.734	0.523
ChaGo-K-1	–	–	–	–	–	0.9	0.814	0.675	0.799	0.799	0.247	0.274	0.248	0.429	0.233	0.986	1	1.02	0.821	0.905
EKVX	1.12	0.85	0.842	0.276	0.141	0.889	0.801	0.498	0.276	0.308	0.413	0.421	0.288	0.232	0.167	0.999	1.04	0.831	0.305	0.205
EMC-BAC-2	0.834	0.775	0.683	0.578	0.435	0.898	0.565	0.447	0.46	0.351	0.473	0.495	0.435	0.451	0.475	1.16	1.47	1.01	0.993	0.811
EPLC-272H	1.19	1.08	0.999	0.711	0.872	0.287	0.498	0.415	0.332	0.269	0.27	0.356	0.262	0.281	0.233	1.09	0.991	0.851	0.822	0.834
H3255	0.963	0.961	0.725	0.233	0.0969	0.826	0.826	0.65	0.509	0.191	0.556	0.568	0.469	0.332	0.226	0.583	0.74	0.243	0.0785	0.0934
HARA	0.94	0.91	0.356	0.338	0.182	0.584	0.656	–	0.577	0.355	0.317	0.276	0.196	–	0.238	1.17	1.12	0.562	0.922	0.644
HCC-15	0.894	0.913	0.776	0.81	0.551	0.954	0.85	0.811	0.724	0.672	0.205	0.222	0.233	0.227	0.205	0.697	0.72	0.666	0.625	–
